Reference: EPA's ToxValDB 9.5 (doi:10.2903/j.efsa.2020.6230)
Converted amounts (≈) assume the structure as drawn.

Columns and labels:
[1] = tested on: Pleurozium sp.; conditions: acute; duration: 72 hours; growth
[2] = tested on: Oncorhynchus mykiss; conditions: for LC50: acute, duration: 96 hours, mortality
[3] = tested on: Rattus norvegicus; conditions: acute; oral; mortality
[4] = tested on: Aphidius rhopalosiphi; assay: LR50; higher = less toxic; conditions: not reported; mortality
[5] = tested on: Oryctolagus sp.; conditions: developmental; development
[6] = tested on: Colinus virginianus; conditions: acute; oral; mortality
[7] = tested on: Apis mellifera; conditions: acute, duration: 48 hours, mortality
[8] = tested on: Anas platyrhynchos; conditions: reproductive
[9] = tested on: Tagia sp.; conditions: chronic/long-term; reproduction
[10] = tested on: Mus musculus; conditions: acute; oral; mortality
[11] = tested on: Daphnia magna; conditions: chronic/long-term; duration: 28 days; reproduction
[12] = tested on: Folsomia candida; conditions: chronic/long-term; reproduction
[13] = tested on: Salmo salar; conditions: acute; duration: 96 hours; mortality

## NC(=O)C1CC=CCC1C(=O)O (configuration not stated) [6-[Hydroxy(imino)methyl]cyclohex-3-ene-1-carboxylic acid]
[1]
  NOEC: 32 mg/L
[2]
  LC50: > 120 mg/L

## O=C1NC(=O)C2CC=CCC12 (configuration not stated) [1,2,3,6-Tetrahydrophthalimide]
[2]
  LC50: > 120 mg/L
[3]
  LD50: ≥ 1470 mg/kg-day

## O=C1C2CC=CCC2C(=O)N1SC(Cl)(Cl)Cl (configuration not stated) [Captan]
[4]
  LR50: > 3200 g/ha
[5]
  NOAEL: 20 mg/kg-day
[6]
  LD50: > 2000 mg/kg-day
[7]; dermal
  LD50: > 200 µg/piece
[7]; oral, unspecified
  LD50: > 100 µg/piece
[8]
  NOEL: 74.4 mg/kg-day
[9]
  NOEC: 7.3 mg/kg
[2]
  LC50: 0.0147 mg/L (≈ 0.0489 µM)
[2]; chronic/long-term, duration: 95 days, growth
  NOEC: 0.2 mg/L
[10]
  LD50: 3720 mg/kg-day
[11]
  NOEC: 0.4 mg/L
[12]
  NOEC: 100 mg/kg
[13]
  LC50: 0.0913 mg/L (≈ 0.304 µM)
